The results in this text go back to the NIST ThermoML archive (doi:10.1016/j.fluid.2005.06.022).

The nature of series [1]: refractive index (Na D-line) (dimensionless). The settings on record: 101.33 kPa, Liquid, Standard Abbe refractometry.
The conditions of series [2]: Liquid; for molar volume: 101.33 kPa.

± gives the expanded uncertainty stated by the source.

`N#Cc1cnccn1` [2-cyanopyrazine]: the refractive index in series [1] (293.15 K) is given as 1.534 ± 0.0012. The molar volume in series [2] (293.15 K) stood at 8.952e-05 ± 5.2e-07 m3/mol. In addition, the “vapor or sublimation pressure” value in series [2] (476.05 K) is listed as 94.7 ± 4.8 kPa.
On to `Cc1cnccn1` [2-methylpyrazine], for which the refractive index in series [1] (293.15 K) is 1.505 ± 0.0012. Moreover, the molar volume in series [2] (293.15 K) was determined as 9.138e-05 ± 5.1e-07 m3/mol. Also, in series [2] (396.65 K), the “vapor or sublimation pressure” value was determined as 94.7 ± 4.8 kPa.
On to `C=CC#N` [acrylonitrile], for which the refractive index in series [1] (298.15 K) turned out to be 1.3888 ± 0.0012. The molar volume in series [2] (298.15 K) is listed as 6.629e-05 ± 3.6e-07 m3/mol. Besides, in series [2] (348.55 K), the “vapor or sublimation pressure” value is recorded as 94.7 ± 4.8 kPa.
In the case of `C1CCCCC1` [cyclohexane], the refractive index in series [1] (298.15 K) is reported as 1.4235 ± 0.0012. Besides, in series [2] (298.15 K), the molar volume is recorded as 0.0001087 ± 5.9e-07 m3/mol. For the same compound, in series [2] (351.85 K), the “vapor or sublimation pressure” value was 94.7 ± 4.8 kPa.
`O=C1CCCCC1` [cyclohexanone]: the refractive index in series [1] (293.15 K) is listed as 1.451 ± 0.0012. In addition, the molar volume in series [2] (293.15 K) turned out to be 0.0001038 ± 5.7e-07 m3/mol. Besides, the “vapor or sublimation pressure” value in series [2] (426.35 K) and in series [2] (426.85 K) was 94.7 ± 4.8 kPa each time.
As to `ClC(Cl)(Cl)Cl` [tetrachloromethane], in series [1] (298.15 K), the refractive index was found to be 1.4574 ± 0.0012. In series [2] (298.15 K), the molar volume was 9.708e-05 ± 6e-07 m3/mol. The “vapor or sublimation pressure” value in series [2] (347.85 K) was 94.7 ± 4.8 kPa.
